From US10336775B2 (Asceneuron SA, priority 2014, dated 2019) come the findings set out here.

One test deals with His-Tagged hOGA (human O-GlcNAcase) (Homo sapiens (Human), UniProt O60502). The test can be described thus: Human O-GlcNAcase enzyme inhibition assay (Example B01). To be noted: OGA enzyme inhibition assay; activity range classes defined in μM; read-out: OGA IC50. It counts as biochemical.
His-Tagged hOGA (human O-GlcNAcase), sequence (O60502 whole entry): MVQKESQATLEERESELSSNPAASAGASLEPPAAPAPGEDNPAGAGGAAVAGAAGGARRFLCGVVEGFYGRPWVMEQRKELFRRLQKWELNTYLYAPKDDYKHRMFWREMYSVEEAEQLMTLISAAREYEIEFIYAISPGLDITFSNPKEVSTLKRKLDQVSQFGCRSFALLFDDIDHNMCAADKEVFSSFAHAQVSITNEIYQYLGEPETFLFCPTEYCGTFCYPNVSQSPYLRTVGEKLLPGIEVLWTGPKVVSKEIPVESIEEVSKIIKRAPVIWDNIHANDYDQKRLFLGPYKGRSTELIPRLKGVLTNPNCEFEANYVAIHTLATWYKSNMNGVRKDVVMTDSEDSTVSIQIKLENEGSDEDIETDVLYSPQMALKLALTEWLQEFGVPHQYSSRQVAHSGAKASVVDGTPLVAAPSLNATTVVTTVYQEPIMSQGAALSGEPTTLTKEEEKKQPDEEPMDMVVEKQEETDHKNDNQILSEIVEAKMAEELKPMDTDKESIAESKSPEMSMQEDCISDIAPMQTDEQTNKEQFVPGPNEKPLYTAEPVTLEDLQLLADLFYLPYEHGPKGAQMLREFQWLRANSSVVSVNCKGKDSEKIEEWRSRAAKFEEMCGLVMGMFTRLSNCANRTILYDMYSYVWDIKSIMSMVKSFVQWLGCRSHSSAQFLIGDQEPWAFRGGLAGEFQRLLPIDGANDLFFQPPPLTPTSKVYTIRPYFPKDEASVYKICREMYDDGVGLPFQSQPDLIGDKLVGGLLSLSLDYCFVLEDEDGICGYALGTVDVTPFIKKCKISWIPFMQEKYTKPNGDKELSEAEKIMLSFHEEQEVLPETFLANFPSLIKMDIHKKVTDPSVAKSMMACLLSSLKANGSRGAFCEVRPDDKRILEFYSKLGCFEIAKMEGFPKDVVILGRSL
Regarding `C[C@@H](c1ccc2c(c1)OCO2)N1CCN(c2nc3c(s2)CNCC3)CC1` [Example 182, (S)-2-(4-(1-(benzo[d][1,3]dioxol-5-yl)ethyl)piperazin-1-yl)-4,5,6,7-tetrahydrothiazolo[5,4-c]pyridine], the IC50 (commonly the concentration that gives 50% inhibition) was under 0.05 µM. On the same count and under the same terms, to `CCOC(=O)c1ccc(N2CCN([C@@H](C)c3ccc4c(c3)OCO4)CC2)nc1` [Example 183, Ethyl (S)-6-(4-(1-(benzo[d][1,3]dioxol-5-yl)ethyl)piperazin-1-yl)nicotinate] belongs 0.05 to 0.2 µM. Still for that read-out and setting: to `CC(=O)N1CCc2nc(N3CCN([C@@H](C)c4ccc5c(c4)OCO5)CC3)sc2C1` [Example 184, (S)-1-(2-(4-(1-(benzo[d][1,3]dioxol-5-yl)ethyl)piperazin-1-yl)-6,7-dihydrothiazolo[5,4-c]pyridin-5(4H)-yl)ethan-1-one] belongs under 0.05 µM; to `C[C@@H](c1ccc2c(c1)OCO2)N1CCN(c2ccc(CO)cn2)CC1` [Example 185, (S)-(6-(4-(1-(benzo[d][1,3]dioxol-5-yl)ethyl)piperazin-1-yl)pyridin-3-yl)methanol], under 0.05 µM; to `CNC(=O)c1ccc(N2CCN([C@@H](C)c3ccc4c(c3)OCO4)CC2)nc1` [Example 186, (S)-6-(4-(1-(benzo[d][1,3]dioxol-5-yl)ethyl)piperazin-1-yl)-N-methylnicotinamide], under 0.05 µM.

With `C[C@@H](c1ccc2c(c1)OCO2)N1CCN(c2ccc(C(=O)N(C)C)cn2)CC1` [Example 187, (S)-6-(4-(1-(benzo[d][1,3]dioxol-5-yl)ethyl)piperazin-1-yl)-N,N-dimethylnicotinamide], the IC50 is under 0.05 µM. On the same count and under the same terms, to `C[C@@H](c1ccc2c(c1)OCO2)N1CCN(c2ncc(C3(O)CCOCC3)cn2)CC1` [Example 188, (S)-4-(2-(4-(1-(benzo[d][1,3]dioxol-5-yl)ethyl)piperazin-1-yl)pyrimidin-5-yl)tetrahydro-2H-pyran-4-ol] belongs under 0.05 µM; to `C[C@@H](c1ccc2c(c1)OCO2)N1CCN(c2ncc(C3(O)CCOC3)cn2)CC1` (stereo partly drawn) [Example 189, 3-(2-(4-((S)-1-(benzo[d][1,3]dioxol-5-yl)ethyl)piperazin-1-yl)pyrimidin-5-yl)tetrahydrofuran-3-ol], under 0.05 µM. As to `C[C@@H](c1ccc2c(c1)OCO2)N1CCN(c2ccc(C(C)(C)O)cn2)CC1` [Example 190, (S)-2-(6-(4-(1-(benzo[d][1,3]dioxol-5-yl)ethyl)piperazin-1-yl)pyridin-3-yl)propan-2-ol], the IC50 is under 0.05 µM. On the same count and under the same terms, to `C[C@@H](c1ccc2c(c1)OCO2)N1CCN(c2ccc(Br)cn2)CC1` [Example 191, (S)-1-(1-(benzo[d][1,3]dioxol-5-yl)ethyl)-4-(5-bromopyridin-2-yl)piperazine] belongs 0.05 to 0.2 µM.

As to `CSc1ccc(N2CCN([C@@H](C)c3ccc4c(c3)OCO4)CC2)nc1` [Example 192, (S)-1-(1-(benzo[d][1,3]dioxol-5-yl)ethyl)-4-(5-(methylthio)pyridin-2-yl)piperazine], the IC50 is under 0.05 µM. On the same count and under the same terms, to `C[C@@H](c1ccc2c(c1)OCO2)N1CCN(c2nc3c(s2)CN(S(C)(=O)=O)CC3)CC1` [Example 193, (S)-2-(4-(1-(benzo[d][1,3]dioxol-5-yl)ethyl)piperazin-1-yl)-5-(methylsulfonyl)-4,5,6,7-tetrahydrothiazolo[5,4-c]pyridine] belongs under 0.05 µM. On the same count and under the same terms, to `COc1cnc(N2CCN([C@@H](C)c3ccc4c(c3)OCO4)CC2)nc1` [Example 195, (S)-2-(4-(1-(benzo[d][1,3]dioxol-5-yl)ethyl)piperazin-1-yl)-5-methoxypyrimidine] belongs under 0.05 µM.

Staying with this test, now noted: measured according to Example B01.
Consider `C[C@@H](c1ccc2c(c1)OCO2)N1CCN(c2nc3c(s2)CNCC3)CC1` [Example 182, (S)-2-(4-(1-(benzo[d][1,3]dioxol-5-yl)ethyl)piperazin-1-yl)-4,5,6,7-tetrahydrothiazolo[5,4-c]pyridine], for which the “OGA inhibitor activity (in words)” value was “very potent OGA inhibitors”. The same measure, in the same setting: to `CC(c1ccc(Cl)cc1)N1CCN(c2ccc3ccccc3n2)CC1` (stereo not shown) [compound 5 of WO 99/21850, reference compound] belongs “not active as OGA inhibitors”.

Staying with this test, now noted: read-out: OGA IC50.
As to `c1cnc(N2CCN(Cc3ccc4c(c3)OCO4)CC2)nc1` [U.S. Pat. No. 3,299,067 (Example 1), reference compound], the IC50 was 0.998 µM.
